Test results taken from patent US20250064801A1, “USE OF 5-AMINO-2,3-DIHYDRO-1,4-PHTHALAZINEDIONE IN THE TREATMENT OF CONGENITAL MUSCULAR DYSTROPHIES” (METROPHARM AG, priority 2022, published 2025).

Columns and labels:
[1] = system: musculus extensor digitorum longus (EDL) muscle in the mdx mouse; assay: Contractile properties (maximum force) of the musculus extensor digitorum longus measured in vitro at end of treatment of mdx mice; type: in vivo
Text: The mdx mouse model is the most widely used and investigated animal model in the research of Duchenne muscular dystrophy since the early 1980ies. These mice are characterized by muscle weakness, histological evidence of myopathy and elevated serum levels of creatin kinase (CK) (cf. Bulfield et al. (1984) PNAS 81: 1189-1192). Herein, CK levels are a marker of the breakdown of CK-rich tissues such as skeletal muscles (rhabdomyolysis). The mutation in the mdx mouse is a nonsense mutation (C-to-T transition) in exon 23 that aborts full-length dystrophin expression (cf. Sicinski et al. (1989) Science 244: 1578-1580). Symptoms are moderate and the mean lifespan is reduced by about 25%. During the first two weeks after birth mdx mice are indistinguishable from wild-type mice. Then skeletal muscle necrosis starts until week 6 after birth and thereupon enters in a plateau phase characterized by muscle hypertrophy. […] Many aged mdx mice develop spontaneous sarcoma.
Mice were identified by ear tags. […] These cages were assigned randomly to treatment groups. Animals were monitored daily for changes in behavior.
The experiments were carried out by AGADA Biosciences (Halifax, Canada) on behalf of the applicant. All treatment substances were provided by the applicant. All treatment groups started with 15 mice. Treatment was blinded.
Contractile properties were measured in vitro on the right musculus extensor digitorum longus (EDL) at the end of the study. The mice were anesthetized using ketamine and xylamine. The EDL muscle of the right hindlimb was removed from each mouse and immersed in individual carbogenated baths (95% O2, 5% CO2) containing Ringer's solution (pH 7.4) at 25° C. The muscle was flanked by two electrodes. Using non-fatiguing twitches, the muscle was maintained at 10 mN for force generation. The maximal force was measured with the muscle held at 10 mN. The muscle was stimulated with an electrode to elicit tetanic contractions that are separated by 2-minute rest intervals. […] This plateau was considered the maximum force (mN) generated by the muscle. The cross-sectional area of the muscle was measured based on muscle mass, muscle length, and tissue density. Finally, the muscle specific force (kN/m^2) was calculated based on the cross-sectional area of the muscle and was converted in relation to the individual body weight ([…]).

[2] = Body weight of mdx mice measured weekly over the treatment period; details: 1.0 mg/kg (prednisolone oral syrup, deflazacort IP)
Description: Animals were received in 2 cohorts (n=49-56; 7-8 per group). Mice were sorted into a total of five treatment groups. The mice of the control groups were wild type C57BL/10ScSnJ and the dmx strain C57BL/10ScSn-Dmdmdx/J. The animals were acclimatized upon arrival to the animal facility for 7 days, housed in cages with up to 5 mice per cage. During the study, 12-hour light/11-hour dark cycles were maintained. Room temperature was maintained between 20° C. and 23° C. Food and water were available ad libitum for the duration of the study. Mice were identified by ear tags. Randomization was done based on the average body weight of the cage. These cages were assigned randomly to treatment groups. Animals were monitored daily for changes in behavior. […]
All treatment compounds were administered via intraperitoneal (IP) injection, with exception of prednisolone that was delivered via oral syrup. […] Once the injection was delivered, the mouse was monitored for a couple of minutes for any adverse side effects. […] Once the complete treatment was delivered the mouse was placed back into its cage and monitored for a couple of minutes for any adverse side effects.
The body weight was measured weekly starting after acclimation of the animals to the facility and the beginning of the treatment (5 weeks of age). […]

[3] = mdx mice, 1.0 mg/kg (prednisolone oral syrup, deflazacort IP)
[4] = mdx mice, 1.0 mg/kg (prednisolone oral syrup, deflazacort IP), right EDL in Ringer's solution 25° C., mean ±SEM

Nc1cccc2c(=O)[nH][nH]c(=O)c12.[Na] [5-amino-2,3-dihydro-1,4-phthalazinedione sodium salt]
dose dependence of the maximum force generated by the muscle ([1]; mouse, in vivo): dose-dependent improvement | maximum force generated by the muscle (EDL), related to body weight ([1]; mouse, in vivo, ip, 5 mg/kg): 106.1±8.0 mN/kg | percentual improvement of maximum force in comparison to the untreated mdx mice control group (set as 100%) ([1]; mouse, in vivo, ip, 5 mg/kg): 16.4%

CC(=O)OCC(=O)[C@@]12N=C(C)O[C@@H]1C[C@H]1[C@@H]3CCC4=CC(=O)C=C[C@]4(C)[C@H]3[C@@H](O)C[C@@]12C [deflazacort]
percentual improvement of maximum force in comparison to the untreated mdx mice control group (set as 100%) [1, 3]: 6.2% | maximum force generated by the muscle (EDL), related to body weight [1, 4]: 96.8±5.2 mN/kg

C[C@]12C=CC(=O)C=C1CC[C@@H]1[C@@H]2[C@@H](O)C[C@@]2(C)[C@H]1CC[C@]2(O)C(=O)CO [prednisolone]
percentual improvement of maximum force in comparison to the untreated mdx mice control group (set as 100%) [1, 3]: 18.0% | maximum force generated by the muscle (EDL), related to body weight [1, 4]: 107.5±7.2 mN/kg | difference in body weight (diminished increase) ([2]; from about week 6): about 7% | body weight increase over the treatment ([2]; weeks of age 5-10, starting at about week 6): significantly diminished body weight increase
